The record followed here is ChEMBL document CHEMBL1149107, “Structure-activity relationships of potent, selective inhibitors of neuronal nitric oxide synthase based on the 6-phenyl-2-aminopyridine structure” (J Med Chem, 2004).

For one test, the target named is T1, Nitric oxide synthase 3 (Homo sapiens, UniProt P29474).
T1 sequence (P29474 whole entry): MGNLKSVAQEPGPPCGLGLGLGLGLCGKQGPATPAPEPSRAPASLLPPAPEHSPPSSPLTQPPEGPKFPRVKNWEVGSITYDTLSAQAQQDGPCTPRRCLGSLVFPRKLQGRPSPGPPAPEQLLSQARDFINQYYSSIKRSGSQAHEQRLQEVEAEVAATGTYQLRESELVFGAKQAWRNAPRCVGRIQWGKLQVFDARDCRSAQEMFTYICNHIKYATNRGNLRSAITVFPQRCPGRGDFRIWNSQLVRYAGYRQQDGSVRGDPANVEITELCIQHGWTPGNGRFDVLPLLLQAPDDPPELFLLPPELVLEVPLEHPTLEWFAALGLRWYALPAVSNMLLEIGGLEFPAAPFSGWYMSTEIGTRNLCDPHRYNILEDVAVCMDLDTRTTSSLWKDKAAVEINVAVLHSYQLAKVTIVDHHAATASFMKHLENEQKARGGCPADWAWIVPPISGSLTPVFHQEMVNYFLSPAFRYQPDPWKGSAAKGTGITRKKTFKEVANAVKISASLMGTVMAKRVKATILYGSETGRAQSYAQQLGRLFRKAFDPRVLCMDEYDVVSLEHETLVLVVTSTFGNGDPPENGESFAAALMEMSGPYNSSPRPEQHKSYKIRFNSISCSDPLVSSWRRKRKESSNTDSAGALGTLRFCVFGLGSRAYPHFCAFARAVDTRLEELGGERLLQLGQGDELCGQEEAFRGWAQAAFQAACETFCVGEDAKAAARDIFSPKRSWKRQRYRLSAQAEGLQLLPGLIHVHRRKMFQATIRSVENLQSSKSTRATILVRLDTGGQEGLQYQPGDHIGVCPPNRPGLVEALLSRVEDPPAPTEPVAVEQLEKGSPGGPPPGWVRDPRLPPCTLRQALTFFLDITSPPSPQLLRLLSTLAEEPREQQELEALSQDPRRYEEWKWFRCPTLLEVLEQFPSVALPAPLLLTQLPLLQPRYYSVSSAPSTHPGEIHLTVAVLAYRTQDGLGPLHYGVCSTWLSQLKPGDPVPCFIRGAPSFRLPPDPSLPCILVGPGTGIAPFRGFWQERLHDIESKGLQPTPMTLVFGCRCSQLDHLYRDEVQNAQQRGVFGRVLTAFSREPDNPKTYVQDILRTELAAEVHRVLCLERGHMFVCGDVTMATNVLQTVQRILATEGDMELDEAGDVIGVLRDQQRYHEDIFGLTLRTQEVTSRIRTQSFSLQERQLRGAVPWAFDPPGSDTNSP
In words: In vitro inhibition of human endothelial nitric oxide synthase.

In test [1] the target is Nitric oxide synthase, inducible (Homo sapiens, UniProt P35228). As to the kind of experiment: In vitro inhibition of human inducible nitric oxide synthase.
Test [2] addresses Nitric oxide synthase 1 (Homo sapiens, UniProt P29475). In words: In vitro inhibition of human neuronal nitric oxide synthase.
For test [3], the target named is Nitric oxide synthase 1 (Rattus norvegicus, UniProt P29476). As to the kind of experiment: In vitro inhibition of rat neuronal nitric oxide synthase.
Sequence of Nitric oxide synthase 1 (Rattus norvegicus, UniProt P29476) (P29476 whole entry): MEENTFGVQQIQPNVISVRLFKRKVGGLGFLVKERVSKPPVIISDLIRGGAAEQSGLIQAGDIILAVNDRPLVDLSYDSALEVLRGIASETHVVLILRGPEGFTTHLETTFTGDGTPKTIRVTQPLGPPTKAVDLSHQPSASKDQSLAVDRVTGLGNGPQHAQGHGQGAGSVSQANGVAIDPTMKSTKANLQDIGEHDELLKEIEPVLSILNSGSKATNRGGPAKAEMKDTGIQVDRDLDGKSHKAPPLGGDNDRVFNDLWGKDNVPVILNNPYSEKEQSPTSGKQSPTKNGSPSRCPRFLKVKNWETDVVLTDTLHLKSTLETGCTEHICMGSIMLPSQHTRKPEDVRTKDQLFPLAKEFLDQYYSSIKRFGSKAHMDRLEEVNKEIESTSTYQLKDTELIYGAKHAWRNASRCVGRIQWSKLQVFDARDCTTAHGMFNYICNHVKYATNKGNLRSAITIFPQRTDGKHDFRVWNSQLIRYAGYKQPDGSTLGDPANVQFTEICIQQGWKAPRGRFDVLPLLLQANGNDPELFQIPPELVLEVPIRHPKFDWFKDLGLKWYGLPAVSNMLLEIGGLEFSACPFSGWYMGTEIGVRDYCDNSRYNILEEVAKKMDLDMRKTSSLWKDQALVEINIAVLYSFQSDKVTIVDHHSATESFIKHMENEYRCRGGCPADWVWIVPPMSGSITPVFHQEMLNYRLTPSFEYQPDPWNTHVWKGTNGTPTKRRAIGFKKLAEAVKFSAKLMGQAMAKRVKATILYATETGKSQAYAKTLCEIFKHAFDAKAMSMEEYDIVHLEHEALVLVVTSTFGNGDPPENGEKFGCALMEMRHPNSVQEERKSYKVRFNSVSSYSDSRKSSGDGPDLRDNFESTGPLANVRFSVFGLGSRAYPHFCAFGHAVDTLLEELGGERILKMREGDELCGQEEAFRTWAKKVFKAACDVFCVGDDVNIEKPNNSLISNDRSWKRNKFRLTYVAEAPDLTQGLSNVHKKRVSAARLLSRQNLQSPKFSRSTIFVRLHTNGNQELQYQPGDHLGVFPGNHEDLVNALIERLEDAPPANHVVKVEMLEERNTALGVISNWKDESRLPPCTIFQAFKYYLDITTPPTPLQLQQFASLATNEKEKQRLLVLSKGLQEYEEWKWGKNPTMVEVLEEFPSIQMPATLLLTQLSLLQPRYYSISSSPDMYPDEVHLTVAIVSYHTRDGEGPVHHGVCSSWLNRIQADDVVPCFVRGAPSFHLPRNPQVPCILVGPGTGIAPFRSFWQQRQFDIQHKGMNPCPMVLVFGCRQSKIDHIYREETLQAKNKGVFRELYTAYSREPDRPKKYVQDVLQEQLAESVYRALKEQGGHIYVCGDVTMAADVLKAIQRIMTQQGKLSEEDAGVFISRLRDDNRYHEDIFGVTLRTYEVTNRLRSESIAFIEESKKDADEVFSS

Sequence of Nitric oxide synthase 1 (Homo sapiens, UniProt P29475) (P29475 whole entry): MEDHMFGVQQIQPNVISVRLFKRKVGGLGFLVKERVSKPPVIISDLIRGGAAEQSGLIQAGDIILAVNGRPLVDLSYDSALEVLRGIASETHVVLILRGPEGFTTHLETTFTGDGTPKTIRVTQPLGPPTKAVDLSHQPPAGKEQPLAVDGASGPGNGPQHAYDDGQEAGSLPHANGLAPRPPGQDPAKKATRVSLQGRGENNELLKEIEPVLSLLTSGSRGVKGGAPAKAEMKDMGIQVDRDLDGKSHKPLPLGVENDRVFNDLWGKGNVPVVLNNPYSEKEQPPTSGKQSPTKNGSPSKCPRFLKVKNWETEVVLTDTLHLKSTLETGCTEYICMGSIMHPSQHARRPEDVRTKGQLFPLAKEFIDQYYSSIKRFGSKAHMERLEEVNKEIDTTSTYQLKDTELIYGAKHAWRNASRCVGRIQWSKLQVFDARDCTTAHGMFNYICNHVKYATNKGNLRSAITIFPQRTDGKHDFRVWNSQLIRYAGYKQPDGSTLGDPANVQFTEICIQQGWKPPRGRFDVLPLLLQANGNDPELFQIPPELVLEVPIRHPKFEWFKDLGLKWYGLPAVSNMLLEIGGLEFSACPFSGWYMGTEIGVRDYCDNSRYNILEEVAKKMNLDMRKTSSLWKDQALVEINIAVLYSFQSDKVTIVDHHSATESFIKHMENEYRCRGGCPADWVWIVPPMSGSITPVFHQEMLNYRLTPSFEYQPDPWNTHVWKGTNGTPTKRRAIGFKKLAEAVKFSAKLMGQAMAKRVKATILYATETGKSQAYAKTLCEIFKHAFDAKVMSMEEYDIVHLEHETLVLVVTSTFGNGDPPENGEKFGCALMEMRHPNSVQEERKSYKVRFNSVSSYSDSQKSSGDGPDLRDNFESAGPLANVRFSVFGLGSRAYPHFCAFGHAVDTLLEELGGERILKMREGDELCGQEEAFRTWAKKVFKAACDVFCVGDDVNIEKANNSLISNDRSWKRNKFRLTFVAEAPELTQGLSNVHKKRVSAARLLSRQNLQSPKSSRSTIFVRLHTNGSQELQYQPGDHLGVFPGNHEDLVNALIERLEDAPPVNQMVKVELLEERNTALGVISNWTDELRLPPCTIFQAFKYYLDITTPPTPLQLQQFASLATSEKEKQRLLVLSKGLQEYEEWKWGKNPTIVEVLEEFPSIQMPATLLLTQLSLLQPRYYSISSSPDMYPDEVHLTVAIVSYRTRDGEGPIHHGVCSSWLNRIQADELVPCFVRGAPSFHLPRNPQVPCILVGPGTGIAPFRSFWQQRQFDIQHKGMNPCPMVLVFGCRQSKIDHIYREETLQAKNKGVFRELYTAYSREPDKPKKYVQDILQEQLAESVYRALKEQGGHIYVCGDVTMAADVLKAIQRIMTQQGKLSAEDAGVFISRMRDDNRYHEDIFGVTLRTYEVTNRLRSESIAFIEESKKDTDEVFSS
Sequence of Nitric oxide synthase, inducible (P35228 whole entry): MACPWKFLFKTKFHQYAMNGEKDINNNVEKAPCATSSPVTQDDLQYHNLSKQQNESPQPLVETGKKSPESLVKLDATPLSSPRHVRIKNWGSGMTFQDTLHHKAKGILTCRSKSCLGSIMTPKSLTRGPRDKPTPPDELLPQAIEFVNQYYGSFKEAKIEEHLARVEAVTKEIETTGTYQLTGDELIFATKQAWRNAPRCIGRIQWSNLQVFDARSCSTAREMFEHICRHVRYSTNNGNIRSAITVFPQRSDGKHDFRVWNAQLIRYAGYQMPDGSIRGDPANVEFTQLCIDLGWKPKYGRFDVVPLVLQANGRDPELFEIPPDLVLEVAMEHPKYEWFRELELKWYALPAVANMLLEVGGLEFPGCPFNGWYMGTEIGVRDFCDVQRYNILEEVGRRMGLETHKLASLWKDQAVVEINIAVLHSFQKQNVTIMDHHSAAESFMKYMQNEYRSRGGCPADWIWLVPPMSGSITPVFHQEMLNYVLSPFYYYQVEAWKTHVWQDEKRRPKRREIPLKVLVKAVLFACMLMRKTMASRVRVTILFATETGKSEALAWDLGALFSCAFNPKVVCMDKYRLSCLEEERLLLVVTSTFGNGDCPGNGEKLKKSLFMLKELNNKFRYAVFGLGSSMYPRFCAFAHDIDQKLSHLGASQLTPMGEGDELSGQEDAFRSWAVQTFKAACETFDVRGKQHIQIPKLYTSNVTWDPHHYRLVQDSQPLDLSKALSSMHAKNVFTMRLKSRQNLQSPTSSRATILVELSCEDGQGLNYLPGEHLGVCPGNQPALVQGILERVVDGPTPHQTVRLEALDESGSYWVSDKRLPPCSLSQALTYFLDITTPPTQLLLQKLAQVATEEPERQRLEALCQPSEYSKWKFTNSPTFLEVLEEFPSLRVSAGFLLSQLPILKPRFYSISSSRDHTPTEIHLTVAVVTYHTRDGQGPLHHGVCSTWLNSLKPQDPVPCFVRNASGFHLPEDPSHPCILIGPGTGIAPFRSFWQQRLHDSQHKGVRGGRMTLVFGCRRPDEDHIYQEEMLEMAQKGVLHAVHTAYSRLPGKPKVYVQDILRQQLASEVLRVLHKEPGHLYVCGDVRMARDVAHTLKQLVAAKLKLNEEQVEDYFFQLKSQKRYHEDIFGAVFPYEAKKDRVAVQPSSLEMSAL

Take `CN(C)CCOc1ccc(-c2cccc(N)n2)c2c1CCC2`: the IC50 – broadly, the concentration that gives 50% inhibition – against Nitric oxide synthase 3 was 1570 nM; in test [1] it was 592 nM; against Nitric oxide synthase 1 [2] it was 50.6 nM; against Nitric oxide synthase 1 [3], 21.8 nM.
For the molecule `Nc1cccc(-c2ccc(OCCN3CCCC3)c3c2CCC3)n1`, the IC50 against Nitric oxide synthase 3 is 785 nM; in test [1], 450 nM; on Nitric oxide synthase 1 [2], 117 nM; against Nitric oxide synthase 1 [3], 59 nM.
On to `CN(C)CCOc1ccc(-c2cccc(N)n2)c2c1C1CCC2C1` (stereo unspecified), for which the IC50 is 19000 nM at Nitric oxide synthase 3, 1080 nM in test [1], 120 nM at Nitric oxide synthase 1 [2] and 185 nM against Nitric oxide synthase 1 [3].
For `CN1CCC(Oc2ccc(-c3cccc(N)n3)c3ccccc23)C1` (stereo unspecified) the same measures were 13000 nM, 2070 nM, 70.3 nM and 48 nM.
As to `Cc1ccnc(N)c1`, half-maximal inhibition against Nitric oxide synthase 1 [3] (IC50) required 40 nM.
`CN1CCN(CCOc2ccc(-c3cccc(N)n3)c3c2CCC3)CC1`: the half-inhibitory concentration (IC50) at Nitric oxide synthase 3 was 3030 nM; in test [1] it was 2200 nM; on Nitric oxide synthase 1 [2], 123 nM; against Nitric oxide synthase 1 [3] it was 82 nM.
The corresponding values for `CN1CCN(CCOc2ccc(-c3cccc(N)n3)c3c2CCCC3)CC1` are 10600 nM, 1280 nM, 121 nM and 99.2 nM.
For `CN(C)C1CCCCC1Oc1ccc(-c2cccc(N)n2)c2ccccc12` (stereo unspecified) the same measures were 13000 nM, 2370 nM, 161 nM and 140 nM.
For `CN(C)C1CCN(CCOc2ccc(-c3cccc(N)n3)c3ccccc23)CC1` the same measures were 7020 nM, 5750 nM, 203 nM and 195 nM.
Regarding `CN1CCCC1COc1ccc(-c2cccc(N)n2)c2ccccc12` (stereo unspecified), the half-inhibitory concentration (IC50) worked out at 2930 nM on Nitric oxide synthase 3, 2850 nM in test [1], 112 nM at Nitric oxide synthase 1 [2] and 80.5 nM on Nitric oxide synthase 1 [3].
On to `CN(C)CCOc1ccc(-c2cccc(N)n2)c2ccccc12`, for which the IC50 turned out to be 5790 nM at Nitric oxide synthase 3, 4600 nM in test [1], 220 nM against Nitric oxide synthase 1 [2] and 167 nM against Nitric oxide synthase 1 [3].
For the molecule `CN1CCN(CCOc2ccc(-c3cccc(N)n3)c3ccccc23)CC1`, the half-inhibitory concentration (IC50) against Nitric oxide synthase 3 turned out to be 12000 nM; in test [1], 9380 nM; on Nitric oxide synthase 1 [2], 390 nM; on Nitric oxide synthase 1 [3], 306 nM.
In the case of `Nc1cccc(-c2ccc(OCC3CC4CCN3CC4)c3ccccc23)n1` (stereo unspecified), the IC50 at Nitric oxide synthase 3 turned out to be 3770 nM; in test [1] it was 5800 nM; on Nitric oxide synthase 1 [2] it was 96.3 nM; at Nitric oxide synthase 1 [3], 88 nM.
The corresponding values for `CN(C)CCOc1ccc(-c2cccc(N)n2)c2c1CCCCC2` are 5750 nM, 2100 nM, 109 nM and 93 nM.
For `Nc1cccc(-c2ccc(OCCN3CCCC3)c3ccccc23)n1`, the IC50 against Nitric oxide synthase 3 is 3710 nM; in test [1], 1770 nM; against Nitric oxide synthase 1 [2], 250 nM; against Nitric oxide synthase 1 [3], 175 nM.
For `CN(C)CCOc1ccc(-c2cccc(N)n2)c2c1CCCC2`, the concentration for half-maximal inhibition (IC50) against Nitric oxide synthase 3 came to 3530 nM; in test [1], 517 nM; against Nitric oxide synthase 1 [2], 70.9 nM; on Nitric oxide synthase 1 [3], 34 nM.
`O=[N+]([O-])c1cccc2cn[nH]c12` [7-NITROINDAZOLE] displayed a 50% inhibitory concentration (IC50) at Nitric oxide synthase 1 [2] of 2500 nM.
With `Nc1cccc(-c2ccc(OCCN3CCCC3)c3c2CCCC3)n1`, the IC50 worked out at 2210 nM at Nitric oxide synthase 3, 358 nM in test [1], 141 nM against Nitric oxide synthase 1 [2] and 80 nM against Nitric oxide synthase 1 [3].
